Assay results: the supplement of paper PMC10307832

Columns and labels:
Assay in all cases: relative viability (nuclei count vs DMSO), 5 days (fraction); higher = more cells survive
[1] = test system: 201T
Summary of the method: (§1)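 Relative viability divides the nuclei count in treated wells by that in vehicle wells. Lung cancer cell lines were seeded in 1536-well plates, dosed by pin tool the next day, and fixed and stained after 5 days in one step with final 0.05% Triton X-100, 1% formaldehyde and 1 ug/ml Hoechst. Dosing was a single drug or a fixed anchor-drug dose plus five library-drug doses (not always all listed) in √10 steps, and values are medians of duplicate plates imaged at 4×.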

[2] = test system: ABC-1
Summary of the method: as §1

[3] = test system: BEN
Summary of the method: as §1

[4] = test system: CAL-12T
Summary of the method: as §1

[5] = test system: COR-L 105
Summary of the method: as §1

[6] = test system: EKVX
Summary of the method: as §1

[7] = test system: EMC-BAC-2
Summary of the method: as §1

[8] = test system: HCC-15
Summary of the method: as §1

[9] = test system: HCC-44
Summary of the method: as §1

[10] = test system: LK-2
Summary of the method: as §1

[11] = test system: LU99A
Summary of the method: as §1

[12] = test system: NCI-H1563
Summary of the method: as §1

[13] = test system: NCI-H1651
Summary of the method: as §1

[14] = test system: NCI-H2023
Summary of the method: as §1

[15] = test system: NCI-H322M
Summary of the method: as §1

[16] = test system: NCI-H358
Summary of the method: as §1

[17] = test system: NCI-H460
Summary of the method: as §1

[18] = test system: NCI-H520
Summary of the method: as §1

[19] = test system: NCI-H522
Summary of the method: as §1

[20] = test system: NCI-H727
Summary of the method: as §1

[21] = test system: NCI-H838
Summary of the method: as §1

[22] = test system: PC-3 [JPC-3]
Summary of the method: as §1

[23] = test system: SW 900
Summary of the method: as §1

Compound: Cc1cn(-c2cc(NC(=O)c3ccc(C)c(Nc4nccc(-c5cccnc5)n4)c3)cc(C(F)(F)F)c2)cn1 [Nilotinib] + N=C(N)NC(=N)NCCc1ccccc1 [Phenformin] (partner 250 µM)
- relative viability ([1]; first compound 0.003162 µM): 0.48
- relative viability ([1]; first compound 0.01 µM): 0.454
- relative viability ([1]; first compound 0.03162 µM): 0.477
- relative viability ([1]; first compound 0.1 µM): 0.491
- relative viability ([2]; first compound 0.001 µM): 0.219
- relative viability ([2]; first compound 0.003162 µM): 0.243
- relative viability ([2]; first compound 0.01 µM): 0.259
- relative viability ([2]; first compound 0.03162 µM): 0.249
- relative viability ([2]; first compound 0.1 µM): 0.264
- relative viability ([3]; first compound 0.001 µM): 0.264
- relative viability ([3]; first compound 0.003162 µM): 0.292
- relative viability ([3]; first compound 0.01 µM): 0.237
- relative viability ([3]; first compound 0.03162 µM): 0.259
- relative viability ([3]; first compound 0.1 µM): 0.289
- relative viability ([4]; first compound 0.001 µM): 0.554
- relative viability ([4]; first compound 0.003162 µM): 0.563
- relative viability ([4]; first compound 0.01 µM): 0.701
- relative viability ([4]; first compound 0.03162 µM): 0.436
- relative viability ([4]; first compound 0.1 µM): 0.47
- relative viability ([5]; first compound 0.001 µM): 0.428
- relative viability ([5]; first compound 0.003162 µM): 0.47
- relative viability ([5]; first compound 0.01 µM): 0.581
- relative viability ([5]; first compound 0.03162 µM): 0.409
- relative viability ([5]; first compound 0.1 µM): 0.438
- relative viability ([6]; first compound 0.001 µM): 0.231
- relative viability ([6]; first compound 0.003162 µM): 0.232
- relative viability ([6]; first compound 0.01 µM): 0.248
- relative viability ([6]; first compound 0.03162 µM): 0.214
- relative viability ([6]; first compound 0.1 µM): 0.236
- relative viability ([7]; first compound 0.001 µM): 0.474
- relative viability ([7]; first compound 0.003162 µM): 0.553
- relative viability ([7]; first compound 0.01 µM): 0.491
- relative viability ([7]; first compound 0.03162 µM): 0.44
- relative viability ([7]; first compound 0.1 µM): 0.484
- relative viability ([8]; first compound 0.001 µM): 0.436
- relative viability ([8]; first compound 0.003162 µM): 0.598
- relative viability ([8]; first compound 0.01 µM): 0.508
- relative viability ([8]; first compound 0.03162 µM): 0.331
- relative viability ([8]; first compound 0.1 µM): 0.404
- relative viability ([9]; first compound 0.001 µM): 0.154
- relative viability ([9]; first compound 0.003162 µM): 0.145
- relative viability ([9]; first compound 0.01 µM): 0.186
- relative viability ([9]; first compound 0.03162 µM): 0.179
- relative viability ([9]; first compound 0.1 µM): 0.166
- relative viability ([10]; first compound 0.001 µM): 0.441
- relative viability ([10]; first compound 0.003162 µM): 0.367
- relative viability ([10]; first compound 0.01 µM): 0.337
- relative viability ([10]; first compound 0.03162 µM): 0.22
- relative viability ([10]; first compound 0.1 µM): 0.314
- relative viability ([11]; first compound 0.001 µM): 0.697
- relative viability ([11]; first compound 0.003162 µM): 0.907
- relative viability ([11]; first compound 0.01 µM): 0.798
- relative viability ([11]; first compound 0.03162 µM): 0.611
- relative viability ([11]; first compound 0.1 µM): 0.483
- relative viability ([12]; first compound 0.001 µM): 0.635
- relative viability ([12]; first compound 0.003162 µM): 0.689
- relative viability ([12]; first compound 0.01 µM): 0.609
- relative viability ([12]; first compound 0.03162 µM): 0.635
- relative viability ([12]; first compound 0.1 µM): 0.61
- relative viability ([13]; first compound 0.001 µM): 0.346
- relative viability ([13]; first compound 0.003162 µM): 0.392
- relative viability ([13]; first compound 0.01 µM): 0.437
- relative viability ([13]; first compound 0.03162 µM): 0.308
- relative viability ([13]; first compound 0.1 µM): 0.356
- relative viability ([14]; first compound 0.001 µM): 0.461
- relative viability ([14]; first compound 0.003162 µM): 0.455
- relative viability ([14]; first compound 0.01 µM): 0.571
- relative viability ([14]; first compound 0.03162 µM): 0.325
- relative viability ([14]; first compound 0.1 µM): 0.361
- relative viability ([15]; first compound 0.001 µM): 0.781
- relative viability ([15]; first compound 0.003162 µM): 0.702
- relative viability ([15]; first compound 0.01 µM): 0.87
- relative viability ([15]; first compound 0.03162 µM): 0.741
- relative viability ([15]; first compound 0.1 µM): 0.833
- relative viability ([16]; first compound 0.001 µM): 0.317
- relative viability ([16]; first compound 0.003162 µM): 0.453
- relative viability ([16]; first compound 0.01 µM): 0.394
- relative viability ([16]; first compound 0.03162 µM): 0.259
- relative viability ([16]; first compound 0.1 µM): 0.217
- relative viability ([17]; first compound 0.001 µM): 0.298
- relative viability ([17]; first compound 0.003162 µM): 0.805
- relative viability ([17]; first compound 0.01 µM): 1.18
- relative viability ([17]; first compound 0.03162 µM): 0.338
- relative viability ([17]; first compound 0.1 µM): 0.106
- relative viability ([18]; first compound 0.001 µM): 0.707
- relative viability ([18]; first compound 0.01 µM): 0.655
- relative viability ([18]; first compound 0.03162 µM): 0.447
- relative viability ([18]; first compound 0.1 µM): 0.428
- relative viability ([19]; first compound 0.001 µM): 0.591
- relative viability ([19]; first compound 0.003162 µM): 0.613
- relative viability ([19]; first compound 0.01 µM): 0.719
- relative viability ([19]; first compound 0.03162 µM): 0.663
- relative viability ([19]; first compound 0.1 µM): 0.56
- relative viability ([20]; first compound 0.001 µM): 0.579
- relative viability ([20]; first compound 0.003162 µM): 0.577
- relative viability ([20]; first compound 0.01 µM): 0.419
- relative viability ([20]; first compound 0.03162 µM): 0.379
- relative viability ([20]; first compound 0.1 µM): 0.346
- relative viability ([21]; first compound 0.001 µM): 0.599
- relative viability ([21]; first compound 0.003162 µM): 0.613
- relative viability ([21]; first compound 0.01 µM): 0.695
- relative viability ([21]; first compound 0.03162 µM): 0.492
- relative viability ([21]; first compound 0.1 µM): 0.51
- relative viability ([22]; first compound 0.001 µM): 0.463
- relative viability ([22]; first compound 0.003162 µM): 0.49
- relative viability ([22]; first compound 0.01 µM): 0.475
- relative viability ([22]; first compound 0.03162 µM): 0.443
- relative viability ([22]; first compound 0.1 µM): 0.482
- relative viability ([23]; first compound 0.001 µM): 0.605
- relative viability ([23]; first compound 0.003162 µM): 0.634
- relative viability ([23]; first compound 0.01 µM): 0.612
- relative viability ([23]; first compound 0.03162 µM): 0.44
- relative viability ([23]; first compound 0.1 µM): 0.408
